Measurements taken from patent publication US20230114728A1 (Venatorx Pharmaceuticals, Inc., priority 2019, published 2023).
pEC50: −log10 of the molar value. Converted amounts (≈) assume the structure as drawn.

Assays:
[1] = molecular target: T1, E. coli K12 PBP3 (Escherichia coli, UniProt P0AD68); assay: biochemical; type: binding
T1 construct: made in house
Method in brief: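 A. baumannii PBP2 (2.5 μM) and PBP3 (0.2 μM) were run in 25 mM Tris pH 8.0 buffer with Tween 20; E. coli PBP3 (1.5 μM) and N. gonorrhoeae PBP2 ([…]) in 50 mM Hepes pH 8.0 buffer.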

[2] = molecular target: T2, P. aeruginosa PBP3 (Pseudomonas aeruginosa, UniProt G3XD46); assay: Bocillin-FL fluorescence polarization competition binding assay, P. aeruginosa PBP3; conditions: fluorescence polarization competition binding assay using Bocillin-FL
T2 construct: made in house
Method in brief: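 Inhibitor competition with Bocillin-FL for P. aeruginosa PBP3 was followed by fluorescence polarization on a Cytation3 (BioTek) reader, using g-factor 0.96, 490 nm excitation and 520 nm emission. The enzyme was at 0.75 μM and the probe at 0.1 μM in Hepes/NaCl/glycerol buffer, 80 μl per well. FP was recorded immediately after probe addition for up to 60 minutes. Potency was expressed as EC50, the concentration that reduces bound probe by 50%.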

[3] = tested on: N. gonorrhoeae ATCC 49226; assay: Liquid broth MIC in Fastidious broth; type: cell-based; conditions: Neisseria gonorrhoeae, ATCC49226; N. gonorrhoeae strain ATCC 49226; Fastidious broth; read-out: Minimum Inhibitory Concentration, N. gonorrhoeae ATCC 49226
Method in brief: (§1)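 Colonies were swabbed from chocolate agar after 24 h growth and standardised by optical density at 600 nm. Compounds were serially diluted twofold in Fastidious broth, and bacteria added to give 5×10^5 CFU/mL. After about 24 h at 36 °C in 5% CO2, the lowest concentration allowing under 10% growth was taken as MIC.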

[4] = tested on: N. gonorrhoeae FA1090; assay: Liquid broth MIC in Fastidious broth; type: cell-based; conditions: Neisseria gonorrhoeae; N. gonorrhoeae strain FA1090; Fastidious broth; read-out: Minimum Inhibitory Concentration, N. gonorrhoeae FA1090
Method in brief: as §1

[5] = tested on: N. gonorrhoeae H041; assay: Liquid broth MIC in Fastidious broth; type: cell-based; conditions: Neisseria gonorrhoeae, H041, read-out: Minimum Inhibitory Concentration, N. gonorrhoeae H041
Method in brief: (§2)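 Strains bearing mosaic PBP2 grown 24 h on chocolate agar (36° C, 5% CO2), suspended in saline and added to 2-fold compound dilutions in Fastidious broth at 5×10^5 CFU/mL. After ~24 hours at 36° C with 5% CO2, MIC taken visually as lowest well with <10% growth relative to full growth.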

[6] = tested on: N. gonorrhoeae WHO G; assay: Liquid broth MIC in Fastidious broth; type: cell-based; conditions: Neisseria gonorrhoeae; N. gonorrhoeae strain WHO G; Fastidious broth; read-out: Minimum Inhibitory Concentration, N. gonorrhoeae WHO G
Method in brief: as §1

[7] = tested on: N. gonorrhoeae WHO K; assay: Liquid broth MIC in Fastidious broth; type: cell-based; conditions: Neisseria gonorrhoeae, read-out: Minimum Inhibitory Concentration, N. gonorrhoeae WHO K
Method in brief: as §2

[8] = tested on: N. gonorrhoeae WHO L; assay: Liquid broth MIC in Fastidious broth; type: cell-based; conditions: Neisseria gonorrhoeae; N. gonorrhoeae strain WHO L; Fastidious broth; read-out: Minimum Inhibitory Concentration, N. gonorrhoeae WHO L
Method in brief: as §1

[9] = tested on: N. gonorrhoeae WHO Q; assay: Liquid broth MIC in Fastidious broth; type: cell-based; conditions: Neisseria gonorrhoeae, read-out: Minimum Inhibitory Concentration, N. gonorrhoeae WHO Q
Method in brief: as §2

[10] = tested on: N. gonorrhoeae WHO Z; assay: Liquid broth MIC in Fastidious broth; type: cell-based; conditions: Neisseria gonorrhoeae, read-out: Minimum Inhibitory Concentration, N. gonorrhoeae WHO Z
Method in brief: as §2

T2 sequence (G3XD46 whole entry): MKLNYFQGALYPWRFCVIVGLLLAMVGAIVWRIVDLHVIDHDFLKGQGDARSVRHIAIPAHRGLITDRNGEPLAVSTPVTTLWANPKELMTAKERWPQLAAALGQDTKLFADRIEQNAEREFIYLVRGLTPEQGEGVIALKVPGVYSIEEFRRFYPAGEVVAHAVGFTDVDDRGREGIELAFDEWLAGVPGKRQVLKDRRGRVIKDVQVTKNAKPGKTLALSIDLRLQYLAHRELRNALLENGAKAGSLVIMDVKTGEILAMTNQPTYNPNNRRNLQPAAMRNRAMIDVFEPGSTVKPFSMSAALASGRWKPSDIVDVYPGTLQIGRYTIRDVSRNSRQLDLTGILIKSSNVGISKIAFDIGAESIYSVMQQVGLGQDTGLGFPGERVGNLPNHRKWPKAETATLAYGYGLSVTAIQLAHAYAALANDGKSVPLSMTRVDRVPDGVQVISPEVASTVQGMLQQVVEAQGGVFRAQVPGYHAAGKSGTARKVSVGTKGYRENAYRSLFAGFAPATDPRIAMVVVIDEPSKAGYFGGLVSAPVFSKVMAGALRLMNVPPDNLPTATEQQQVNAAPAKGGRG
T1 sequence (P0AD68 1-577): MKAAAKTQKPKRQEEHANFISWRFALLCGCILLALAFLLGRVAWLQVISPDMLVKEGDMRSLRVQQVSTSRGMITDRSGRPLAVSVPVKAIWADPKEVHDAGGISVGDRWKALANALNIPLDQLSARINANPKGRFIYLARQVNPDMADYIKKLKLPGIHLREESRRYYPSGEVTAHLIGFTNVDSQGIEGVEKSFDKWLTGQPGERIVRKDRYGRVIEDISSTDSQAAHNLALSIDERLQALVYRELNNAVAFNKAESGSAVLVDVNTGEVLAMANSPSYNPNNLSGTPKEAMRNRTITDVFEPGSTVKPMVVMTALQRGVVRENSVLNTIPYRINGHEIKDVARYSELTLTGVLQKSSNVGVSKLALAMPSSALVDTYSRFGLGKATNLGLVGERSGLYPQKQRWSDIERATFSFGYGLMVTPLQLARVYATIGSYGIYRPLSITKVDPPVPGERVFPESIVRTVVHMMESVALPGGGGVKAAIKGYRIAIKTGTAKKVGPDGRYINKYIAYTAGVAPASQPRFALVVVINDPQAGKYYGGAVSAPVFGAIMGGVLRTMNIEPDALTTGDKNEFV

Compound | pEC50 [1] | P. aeruginosa PBP3 Potency [2] | MIC [3] [µg/mL] | MIC [4] [µg/mL] | MIC [5] [µg/mL] | MIC [6] [µg/mL] | MIC [7] [µg/mL] | MIC [8] [µg/mL] | MIC [9] [µg/mL] | MIC [10] [µg/mL]
NCCN1CCN(C(=O)NC(C(=O)N[C@H]2Cc3cccc(C(=O)O)c3OB2O)c2c(F)cc(NS(N)(=O)=O)cc2F)C(=O)C1=O (stereo partly drawn) [Example 177, (3R)-3-(2-(4-(2-aminoethyl)-2,3-dioxopiperazine-1-carboxamido)-2-(2,6-difluoro-4-(sulfamoylamino)phenyl)acetamido)-2-hydroxy-3,4-dihydro-2H-benzo[e][1,2]oxaborinine-8-carboxylic acid] | 3.30 to 4.52 | D (D represents a potency <10 μM) | > 64 | 4 to 8 (≈ 6.12 to 12.2 µM) | > 64 | 16 to 32 (≈ 24.5 to 49 µM) | > 64 | > 64 | > 64 | > 64
NCCCN1CCN(C(=O)NC(C(=O)N[C@H]2Cc3ccc(F)c(C(=O)O)c3OB2O)c2c(F)cc(O)cc2F)C(=O)C1=O (stereo partly drawn) [Example 178, (3R)-3-(2-(4-(3-aminopropyl)-2,3-dioxopiperazine-1-carboxamido)-2-(2,6-difluoro-4-hydroxyphenyl)acetamido)-7-fluoro-2-hydroxy-3,4-dihydro-2H-benzo[e][1,2]oxaborinine-8-carboxylic acid] | > 4.52 | D (D represents a potency <10 μM) | 16 to 32 (≈ 26.3 to 52.7 µM) | 4 to 8 (≈ 6.59 to 13.2 µM) | > 64 | 16 to 32 (≈ 26.3 to 52.7 µM) | > 64 | > 64 | > 64 | > 64
